Experimental data: patent US20190314379A1, “METHODS OF USING CANNABINOID CB2 RECEPTOR AGONIST COMPOSITIONS TO SUPPRESS AND PREVENT OPIOID TOLERANCE AND WITHDRAWAL IN A SUBJECT” (Indiana University Research and Technology Corporation, priority 2018, published 2019)
Entries after “also recorded” stand apart in the source; their conditions may differ. Like-named read-outs stand apart in the source and are kept apart here.

Legend:
mouse CB2 receptors [1] = target: T1, mouse CB2 receptors (Mus musculus, UniProt P47936); test: Arrestin recruitment (PathHunter CHO K1CNR2, enzyme complementation); assay type: cell-based
T1 construct: expressed in transfected cells

mouse CB2 receptors [2] = target: T1, mouse CB2 receptors; test: Phosphorylated ERK1/2 detection, HEK mCB2; assay type: cell-based; settings: for Emax: read-out: pERK1/2 Emax
[3] = system: paclitaxel-induced mechanical allodynia; test: Paclitaxel-induced mechanical allodynia (electronic von Frey); assay type: in vivo, mouse; settings: for mechanical allodynia, chronic phase 1 treatment: 3 mg/kg per day i.p.×12 days
Description: In all studies, the experimenter was blinded to the treatment condition, and mice were randomly assigned to experimental conditions. Paclitaxel (4 mg/kg i.p.) was administered four times on alternate days (cumulative dose, 16 mg/kg i.p.) to induce neuropathic pain as described previously by our group (Deng et al., 2015). Control mice received an equal volume of cremophor-vehicle. Development of paclitaxel-induced allodynia was assessed on day 0, 4, 7, 11, and 14.
Effects of pharmacologic manipulations were assessed at 30 minutes after drug administration during the maintenance phase of paclitaxel-induced neuropathy (i.e., beginning day 18-20 after initial paclitaxel injection).
In experiments 2 and 3, pharmacologic manipulations were performed once daily for 12 consecutive days in each of the two phases of chronic treatment. Four days separated phase 1 and phase 2 chronic dosing in all studies comprising two phases of chronic dosing. Experiments 2 and 3 were performed concurrently using overlapping cohorts that were tested with a single vehicle (phase 1), vehicle (phase 2) group.
We then assessed the antiallodynic efficacy of chronic systemic administration of vehicle or morphine (10 mg/kg per day i.p.×12 days) administered during phase 2 in the same animals. Responsiveness to mechanical and cold stimulation was evaluated on treatment days 1, 4, 8, and 12 during phase 1 and on treatment days 16, 19, 23, and 27 during phase 2 (i.e., phase 2 started on day 16).
In experiment 4, we evaluated the impact of coadministration of morphine (10 mg/kg i.p.×12 days) with a submaximal dose of LY 2828360 (0.1 mg/kg per day i.p.×12 days) in WT and CB2 KO mice.
Paw withdrawal thresholds (grams) to mechanical stimulation were measured in duplicate for each paw using an electronic von Frey anesthesiometer supplied with a 90-g probe (model Alemo 2390-5; IITC, Woodland Hills, Calif.) as described previously. Mice were placed on an elevated metal mesh table and allowed to habituate under individual, inverted plastic cages to the testing platform for at least 20 minutes until exploratory behavior had ceased. Alter the habituation period, a force was applied to the midplantar region of the hind paw with a semiflexible tip connected to the anesthesiometer. Mechanical stimulation was terminated when the animal withdrew its paw, and the value of the applied force was recorded in grams. Mechanical paw withdrawal thresholds were obtained in duplicate for each paw and are reported as the mean of duplicate determinations from each animal, averaged across animals, for each group.

osteoarthritic knee pain = settings: cited from earlier work
human CB2 = human CB2 (Homo sapiens, UniProt P34972); test: Phosphorylated ERK1/2 detection, HEK hCB2; assay type: cell-based; design: expressed in transfected cells; settings: for Emax: read-out: pERK1/2 Emax
[4] = WT mice, 3 mg/kg per day i.p.×12 days after phase 1 morphine

human CB2, sequence (P34972 whole entry): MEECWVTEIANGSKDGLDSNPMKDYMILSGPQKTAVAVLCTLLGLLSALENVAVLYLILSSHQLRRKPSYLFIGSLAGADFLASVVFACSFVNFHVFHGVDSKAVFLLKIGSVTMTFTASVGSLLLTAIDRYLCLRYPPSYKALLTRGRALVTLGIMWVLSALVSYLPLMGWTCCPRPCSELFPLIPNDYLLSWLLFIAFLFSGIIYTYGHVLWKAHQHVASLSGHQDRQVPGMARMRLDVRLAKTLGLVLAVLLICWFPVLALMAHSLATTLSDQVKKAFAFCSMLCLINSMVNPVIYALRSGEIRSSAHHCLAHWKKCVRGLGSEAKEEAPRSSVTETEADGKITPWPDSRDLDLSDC
T1 sequence (P47936 whole entry): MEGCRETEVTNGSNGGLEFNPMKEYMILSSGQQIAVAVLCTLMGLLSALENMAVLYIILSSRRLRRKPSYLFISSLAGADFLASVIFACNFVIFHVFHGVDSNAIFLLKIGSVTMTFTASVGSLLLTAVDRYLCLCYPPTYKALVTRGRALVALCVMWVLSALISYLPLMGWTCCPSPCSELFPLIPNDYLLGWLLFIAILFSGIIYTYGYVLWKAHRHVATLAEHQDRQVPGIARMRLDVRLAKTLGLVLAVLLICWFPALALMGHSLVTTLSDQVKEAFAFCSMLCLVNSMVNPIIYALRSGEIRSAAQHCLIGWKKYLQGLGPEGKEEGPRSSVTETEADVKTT

Cc1nc(N2CCN(C)CC2)c2nc(-c3ccccc3Cl)n(C3CCOCC3)c2n1 [LY2828360, 8-(2-chlorophenyl)-2-methyl-6-(4-methylpiperazin-1-yl)-9-(tetrahydro-2H-pyran-4-yl)-9H-purine]
arrestin recruitment (mouse CB2 receptors [1]; CHO cells expressing mCB2, 90-minute drug incubation): failed to do so
Emax (mouse CB2 receptors [1]; mouse CB2, 90 mins incubation, read-out: Arrestin Emax): 97.9%
ERK1/2 phosphorylation time course (mouse CB2 receptors [2]; mCB2, 1 μM): had no effect at 5- and 10-minute time points but increased ERK1/2 phosphorylation at 20, 30, and 40 minutes
ERK1/2 phosphorylation after PTX treatment (mouse CB2 receptors [2]; mCB2, 1 μM, PTX): abolished the 20-minute phosphorylation of ERK1/2
ERK1/2 phosphorylation, concentration response (mouse CB2 receptors [2]; mCB2, 5 minutes): failed to affect pERK1/2 levels
ERK1/2 phosphorylation, concentration response (mouse CB2 receptors [2]; mCB2, 20 minutes): increased ERK1/2 phosphorylation
effect on ERK1/2 phosphorylation in presence of SR144528 (mouse CB2 receptors [2]; mCB2, 20 minutes, SR144528 1 μM): blocked
Emax (mouse CB2 receptors [2]; mouse CB2, 05 mins incubation): 4.1%
EC50 (mouse CB2 receptors [2]; mouse CB2, 20 mins incubation, read-out: pERK1/2 EC50): 339 nM
Emax (mouse CB2 receptors [2]; mouse CB2, 20 mins incubation): 43.6%
time for responsiveness to mechanical stimulation to return to baseline ([3]; 3 mg/kg i.p. acute): 1 days
mechanical allodynia, chronic phase 1 treatment ([3]; CB2KO mice): failed to suppress
mechanical responsiveness, phase 2 treatment of morphine-tolerant mice ([3]; CB2KO mice, 3 mg/kg per day i.p.×12 days after phase 1 morphine): did not alter responsiveness to mechanical or cold stimulation
mechanical allodynia, coadministration with morphine ([3]; CB2KO mice, LY2828360 0.1 mg/kg with morphine 10 mg/kg per day×12 days): sustained antiallodynic efficacy was absent
development of tolerance to antiallodynic effect of phase 2 morphine, mechanical ([3]; CB2KO mice, LY2828360 phase 1, morphine phase 2): did not block the development of morphine tolerance
paclitaxel-induced mechanical allodynia, high dose ([3]; WT mice, 3 mg/kg i.p. acute): fully reversed paclitaxel-induced allodynia and normalized responses to pre-paclitaxel baseline levels
mechanical allodynia, chronic phase 1 treatment ([3]; WT mice): markedly suppressed paclitaxel-induced mechanical and cold allodynia throughout the observation interval
mechanical allodynia, phase 2 treatment of morphine-tolerant mice [3, 4]: fully reversed paclitaxel-induced allodynia and normalized responsiveness to pre-paclitaxel baseline levels
tolerance to phase 2 treatment, mechanical [3, 4]: tolerance did not develop
mechanical allodynia, coadministration with morphine ([3]; WT mice, LY2828360 0.1 mg/kg per day i.p.×12 days with morphine 10 mg/kg per day×12 days): fully reversed paclitaxel-induced mechanical allodynia and normalized responses to pre-paclitaxel baseline levels throughout the observation period
development of morphine tolerance under coadministration, mechanical ([3]; WT mice, LY2828360 0.1 mg/kg with morphine 10 mg/kg per day×12 days): morphine tolerance failed to develop
development of tolerance to antiallodynic effect of phase 2 morphine, mechanical ([3]; WT mice, LY2828360 3 mg/kg per day×12 days phase 1, morphine 10 mg/kg×12 days phase 2): prevented the development of morphine tolerance
paclitaxel-induced mechanical allodynia, acute dose response ([3]; WT mice, acute systemic (i.p.), dose-dependent): suppressed
mechanical allodynia at low doses vs cremophor-vehicle controls ([3]; WT mice, doses lower than 0.3 mg/kg i.p.): neuropathic pain was prominent
stability of antiallodynic efficacy (tolerance), mechanical ([3]; WT mice, phase 1, 3 mg/kg per day i.p.×12 days): stable throughout phase 1 treatment
risks or discomforts in human subjects (osteoarthritic knee pain; osteoarthritic pain, up to 80 mg for 4 weeks): No specific risks or discomforts
primary endpoint vs placebo / relief of osteoarthritis pain (osteoarthritic knee pain; patients with osteoarthritic knee pain, phase 2): ineffective in relieving pain associated with osteoarthritis; also recorded: did not differ
ERK1/2 phosphorylation time course (human CB2; hCB2, 1 pM): increased ERK1/2 phosphorylation after 30 minutes, but not at 5 minutes
ERK1/2 phosphorylation after PTX treatment (human CB2; hCB2, 1 pM, PTX): abolished ERK1/2 phosphorylation
stimulated phosphorylation of ERK1/2 in presence of SR144528 (human CB2; hCB2, SR144528 (1 pM)): completely blocked
Emax (human CB2; human CB2, 05 mins incubation): 22.1%
Emax (human CB2; human CB2, 30 mins incubation): 32.3%
